# Experimental data reported in ChEMBL document CHEMBL1201862, “PubChem BioAssay data set” (2004).
# Activity calls are given as the source filed them.
# Tests used:
# Beta-lactamase [1] = molecular target: Beta-lactamase (Salmonella choleraesuis (strain SC-B67), UniProt Q5J463); assay: Epi-absorbance-based counterscreen for selective VIM-2 inhibitors: dose response biochemical high throughput screening assay to identify inhibitors of TEM-1 serine-beta-lactamase.
# Beta-lactamase [2] = molecular target: T1, Beta-lactamase (Pseudomonas aeruginosa, UniProt Q79MP6); assay: IMP-1 metallo-beta-lactamase inhibitors, dose response, selectivity assay for VIM-2 inhibitor project, biochemical, epi-absorbance (AID 1920)
# Beta-lactamase [3] = molecular target: T1, Beta-lactamase; assay: […] counterscreen for selective VIM-2 inhibitors: dose response biochemical high throughput screening assay to identify inhibitors of IMP-1 metallo-beta-lactamase.
# [4] = molecular target: Glucose-6-phosphate 1-dehydrogenase (Homo sapiens, UniProt P11413); assay: human G6PD enzyme inhibitors, dose response, selectivity assay for P. falciparum G6PD inhibitor project, biochemical, fluorescence (AID 504792); assay type: functional
# [5] = molecular target: Mitochondrial peptide methionine sulfoxide reductase (Bos taurus, UniProt P54149); assay type: functional;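 further: absorbance read-out, biochemical high-throughput dose-response screen for MsrA inhibitors, confirmatory; recombinant bovine MsrA coupled to E. coli TrxB with NADPH and selenocystamine; potency is for inhibitors of MsrA activity on DMSO substrate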
# Paired box protein Pax-8 = Paired box protein Pax-8 (Homo sapiens, UniProt Q06710); assay: inhibitors of PAX8-driven TPO luciferase reporter, dose response, RMG-I cells, cherry-pick (AID 687027); assay type: functional, cell-based;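 further: luciferase reporter driven by Pax8 target thyroperoxidase promoter measured by SteadyGlo luminescence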
# [6] = A549 cell cytotoxicity, dose response, cytotoxicity control, plate reader, cherry-pick, antagonist series (AID 743412); assay type: functional, cell-based
# [7] = HepG2 cell cytotoxicity, dose response, cytotoxicity control, plate reader, cherry-pick, antagonist series (AID 743416); assay type: functional, cell-based
# [8] = LGR2 antagonists, dose response, cell-based, HEK293, CRE-luciferase reporter, cherry pick, set 2 (AID 743343); assay type: functional;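 further: transfected cells were stimulated with diluted bursicon conditioned medium after compound addition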
# [9] = non-specific cell cytotoxicity, dose response, cytotoxicity control for PAX8 inhibitor project, plate reader, dry powder samples (AID 743021); assay type: functional, cell-based
# [10] = MC4R antagonists, dose response, counter-screen for LGR2 antagonist project, cell-based, plate reader, cherry pick (AID 743444); assay type: functional;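 further: transfected HEK 293 cells stimulated with alpha-MSH peptide; potency of inhibitors of the alpha-MSH evoked signal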
# [11] = HEK293 cell cytotoxicity, dose response, cytotoxicity control, plate reader, cherry-picked samples (AID 743446); assay type: functional, cell-based
# [12] = molecular target: T2, Sentrin-specific protease 8 (Homo sapiens, UniProt Q96LD8); assay type: functional
# T2 sequence (Q96LD8 whole entry): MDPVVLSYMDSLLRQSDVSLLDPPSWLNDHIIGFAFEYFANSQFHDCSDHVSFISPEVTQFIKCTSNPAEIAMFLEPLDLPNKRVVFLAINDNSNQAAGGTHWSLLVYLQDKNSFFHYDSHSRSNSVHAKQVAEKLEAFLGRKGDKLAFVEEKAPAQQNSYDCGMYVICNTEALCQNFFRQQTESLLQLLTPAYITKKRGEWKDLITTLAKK
# [13] = molecular target: T2, Sentrin-specific protease 8; assay type: functional; remark: listed apart in the source
# [14] = molecular target: Melanin-concentrating hormone receptor 1 (Homo sapiens, UniProt Q99705); assay: Late-stage fluorescence-based counterscreen for antagonists of the G-protein coupled receptor 7 (GPR7): cell-based dose response assay to identify antagonists of the melanin-concentrating hormone receptor 1 (MCHR1) Set 6.; assay type: functional
# [15] = molecular target: T3, Neuropeptides B/W receptor type 1 (Homo sapiens, UniProt P48145); assay: GPR7 antagonist potency, late-stage follow-up, cell-based, fluorescence, dose response, set 6 (AID 588583); assay type: functional
# T3 sequence (P48145 whole entry): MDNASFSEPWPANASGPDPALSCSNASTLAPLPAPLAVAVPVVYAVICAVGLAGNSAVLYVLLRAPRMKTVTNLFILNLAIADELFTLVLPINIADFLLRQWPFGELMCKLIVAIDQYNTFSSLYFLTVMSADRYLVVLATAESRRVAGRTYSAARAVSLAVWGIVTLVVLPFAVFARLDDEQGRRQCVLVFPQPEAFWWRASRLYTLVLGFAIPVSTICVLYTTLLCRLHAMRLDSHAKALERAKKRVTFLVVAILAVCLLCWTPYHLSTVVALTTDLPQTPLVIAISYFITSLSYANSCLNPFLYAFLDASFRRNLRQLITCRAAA
# [16] = molecular target: T4, Small ubiquitin-related modifier 2 (Homo sapiens, UniProt P61956); assay: SUMO2–SIM peptide binding inhibitors, dose response, selectivity assay for SUMO1 interaction inhibitor project, biochemical, fluorescence polarization, uHTS hits (AID 624385); assay type: functional; settings: read-out: IC50_Mean
# [17] = molecular target: T5, Small ubiquitin-related modifier 1 (Homo sapiens, UniProt P63165); assay: inhibitors of SUMO1 peptide binding, dose response, biochemical, fluorescence polarization, uHTS hits (AID 624382); assay type: functional; settings: read-out: IC50_Mean
# [18] = molecular target: T4, Small ubiquitin-related modifier 2; assay: inhibitors of SUMO2 protein-protein interaction, dose response, selectivity assay for SUMO1 interaction inhibitor project, biochemical, FRET, human SUMO2, uHTS hits (AID 624384); assay type: functional; settings: read-out: IC50_Mean
# [19] = molecular target: T5, Small ubiquitin-related modifier 1; assay: inhibitors of SUMO1 partner interactions, dose response, biochemical, FRET (AID 624383); assay type: functional; settings: read-out: IC50_Mean
# Bcl-2-related protein A1 = molecular target: T6, Bcl-2-related protein A1 (Mus musculus, UniProt Q07440); assay type: functional;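 further: confirmatory dose–response counterscreen on Bfl-1, used to check hits from a UBC13 polyubiquitin inhibitor campaign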
# T6 sequence (Q07440 whole entry): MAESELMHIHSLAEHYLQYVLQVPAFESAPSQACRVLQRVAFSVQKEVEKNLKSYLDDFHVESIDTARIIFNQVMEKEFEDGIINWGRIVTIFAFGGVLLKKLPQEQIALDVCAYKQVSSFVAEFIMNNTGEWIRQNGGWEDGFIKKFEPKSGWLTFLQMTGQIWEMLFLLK
# [20] = molecular target: T7, Ubiquitin-conjugating enzyme E2 N (Homo sapiens, UniProt P61088); assay type: functional
# T7 sequence (P61088 whole entry): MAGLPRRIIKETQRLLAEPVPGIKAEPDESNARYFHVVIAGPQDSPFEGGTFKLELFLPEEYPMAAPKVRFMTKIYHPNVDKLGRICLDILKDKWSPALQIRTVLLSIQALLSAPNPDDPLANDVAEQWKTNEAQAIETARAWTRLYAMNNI
# [21] = molecular target: T7, Ubiquitin-conjugating enzyme E2 N; assay type: functional; remark: listed apart in the source
# [22] = molecular target: Arf-GAP with SH3 domain, ANK repeat and PH domain-containing protein 1 (Homo sapiens, UniProt Q9ULH1); assay type: functional;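 further: biochemical fluorescence polarization dose–response screen measuring inhibition of ASAP1; ASAP1 GAP domain stimulating GTP hydrolysis by truncated human ARF1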
# [23] = molecular target: Long-chain-fatty-acid--AMP ligase FadD28 (Mycobacterium tuberculosis, UniProt P9WQ59); assay: Fluorescence polarization aasay to screen for inhibitors that compete for the binding of FadD28 to a bisubstrate Measured in Biochemical System Using Plate Reader - 2147-01_Inhibitor_Dose_CherryPick_Activity.; assay type: functional, Mycobacterium tuberculosis H37Rv
# Melanocortin receptor 4 = Melanocortin receptor 4 (Homo sapiens, UniProt P32245); assay type: functional, cell-based;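 further: Cell-based assay with luminescence read-out, confirmatory dose-response testing for agonist activity of biased ligands at MC4R; human U2OS cells with tagged receptor and beta-arrestin; potency of agonists that increase receptor coupling to beta-arrestin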
# Melanocortin receptor 4, sequence (P32245 whole entry): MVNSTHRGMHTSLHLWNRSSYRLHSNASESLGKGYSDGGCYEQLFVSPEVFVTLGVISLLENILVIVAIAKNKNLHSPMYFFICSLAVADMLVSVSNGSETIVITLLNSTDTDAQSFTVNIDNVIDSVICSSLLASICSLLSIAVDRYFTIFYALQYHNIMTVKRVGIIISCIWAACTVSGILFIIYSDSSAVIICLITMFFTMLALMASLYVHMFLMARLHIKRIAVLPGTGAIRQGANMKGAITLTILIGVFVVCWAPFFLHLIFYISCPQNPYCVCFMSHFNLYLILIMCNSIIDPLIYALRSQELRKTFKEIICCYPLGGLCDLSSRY
# T4 sequence (P61956 whole entry): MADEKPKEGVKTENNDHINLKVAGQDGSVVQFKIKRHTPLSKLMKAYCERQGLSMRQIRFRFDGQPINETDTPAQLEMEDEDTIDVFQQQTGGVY
# T1 sequence (Q79MP6 whole entry): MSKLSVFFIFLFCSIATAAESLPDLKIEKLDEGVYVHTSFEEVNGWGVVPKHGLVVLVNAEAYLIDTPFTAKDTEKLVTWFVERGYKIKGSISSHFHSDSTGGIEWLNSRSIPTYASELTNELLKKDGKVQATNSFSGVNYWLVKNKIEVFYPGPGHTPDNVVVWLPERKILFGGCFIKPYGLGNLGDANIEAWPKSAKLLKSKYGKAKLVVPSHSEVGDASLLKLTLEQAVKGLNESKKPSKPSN
# T5 sequence (P63165 whole entry): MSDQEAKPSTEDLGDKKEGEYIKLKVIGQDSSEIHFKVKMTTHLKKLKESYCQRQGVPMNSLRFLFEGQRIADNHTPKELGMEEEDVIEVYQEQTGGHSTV
# Beta-lactamase (Salmonella choleraesuis (strain SC-B67), UniProt Q5J463), sequence (Q5J463 whole entry): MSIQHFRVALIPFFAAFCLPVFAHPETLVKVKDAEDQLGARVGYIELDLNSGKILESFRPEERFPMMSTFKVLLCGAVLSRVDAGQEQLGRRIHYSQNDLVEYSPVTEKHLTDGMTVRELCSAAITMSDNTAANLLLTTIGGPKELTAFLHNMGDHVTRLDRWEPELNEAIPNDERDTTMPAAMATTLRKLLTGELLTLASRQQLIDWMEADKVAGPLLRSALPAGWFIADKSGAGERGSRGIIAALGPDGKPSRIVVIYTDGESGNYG
# Melanin-concentrating hormone receptor 1, sequence (Q99705 whole entry): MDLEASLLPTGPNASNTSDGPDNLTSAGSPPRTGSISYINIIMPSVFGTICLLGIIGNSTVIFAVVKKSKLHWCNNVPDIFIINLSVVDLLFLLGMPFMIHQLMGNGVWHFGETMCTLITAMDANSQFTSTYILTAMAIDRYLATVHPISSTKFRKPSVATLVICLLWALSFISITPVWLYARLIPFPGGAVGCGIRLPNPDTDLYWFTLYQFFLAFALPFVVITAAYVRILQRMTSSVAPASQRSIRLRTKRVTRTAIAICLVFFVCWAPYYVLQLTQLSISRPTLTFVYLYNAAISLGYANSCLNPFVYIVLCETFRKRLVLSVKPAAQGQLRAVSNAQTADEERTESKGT
# Long-chain-fatty-acid--AMP ligase FadD28, sequence (P9WQ59 whole entry): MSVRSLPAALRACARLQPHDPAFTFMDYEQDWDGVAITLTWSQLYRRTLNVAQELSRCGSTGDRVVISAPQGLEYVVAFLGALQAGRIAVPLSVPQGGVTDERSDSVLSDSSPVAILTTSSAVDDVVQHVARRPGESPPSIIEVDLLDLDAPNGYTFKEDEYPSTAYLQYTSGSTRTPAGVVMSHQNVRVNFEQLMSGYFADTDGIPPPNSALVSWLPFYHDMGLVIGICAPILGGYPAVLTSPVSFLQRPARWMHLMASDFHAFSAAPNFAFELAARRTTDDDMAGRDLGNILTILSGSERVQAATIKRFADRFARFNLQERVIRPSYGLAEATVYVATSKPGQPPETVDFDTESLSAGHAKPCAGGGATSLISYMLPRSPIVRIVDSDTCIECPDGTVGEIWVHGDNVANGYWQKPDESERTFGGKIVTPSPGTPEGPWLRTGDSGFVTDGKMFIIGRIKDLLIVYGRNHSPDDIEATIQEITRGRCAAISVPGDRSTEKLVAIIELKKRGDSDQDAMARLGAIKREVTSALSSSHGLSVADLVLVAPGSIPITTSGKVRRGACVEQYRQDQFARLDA
# Paired box protein Pax-8, sequence (Q06710 whole entry): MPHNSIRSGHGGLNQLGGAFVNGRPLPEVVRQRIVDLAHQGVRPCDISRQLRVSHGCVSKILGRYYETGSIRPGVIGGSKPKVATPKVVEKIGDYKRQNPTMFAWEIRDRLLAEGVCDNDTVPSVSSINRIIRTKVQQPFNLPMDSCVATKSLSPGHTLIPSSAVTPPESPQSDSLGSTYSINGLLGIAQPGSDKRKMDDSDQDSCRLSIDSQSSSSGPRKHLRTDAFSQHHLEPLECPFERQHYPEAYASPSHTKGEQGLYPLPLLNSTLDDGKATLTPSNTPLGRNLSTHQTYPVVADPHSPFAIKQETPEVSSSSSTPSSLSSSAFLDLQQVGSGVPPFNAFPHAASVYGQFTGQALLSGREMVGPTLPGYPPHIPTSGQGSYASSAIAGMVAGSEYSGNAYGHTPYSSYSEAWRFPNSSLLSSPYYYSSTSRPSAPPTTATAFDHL
# Arf-GAP with SH3 domain, ANK repeat and PH domain-containing protein 1, sequence (Q9ULH1 whole entry, the tested form may be a part): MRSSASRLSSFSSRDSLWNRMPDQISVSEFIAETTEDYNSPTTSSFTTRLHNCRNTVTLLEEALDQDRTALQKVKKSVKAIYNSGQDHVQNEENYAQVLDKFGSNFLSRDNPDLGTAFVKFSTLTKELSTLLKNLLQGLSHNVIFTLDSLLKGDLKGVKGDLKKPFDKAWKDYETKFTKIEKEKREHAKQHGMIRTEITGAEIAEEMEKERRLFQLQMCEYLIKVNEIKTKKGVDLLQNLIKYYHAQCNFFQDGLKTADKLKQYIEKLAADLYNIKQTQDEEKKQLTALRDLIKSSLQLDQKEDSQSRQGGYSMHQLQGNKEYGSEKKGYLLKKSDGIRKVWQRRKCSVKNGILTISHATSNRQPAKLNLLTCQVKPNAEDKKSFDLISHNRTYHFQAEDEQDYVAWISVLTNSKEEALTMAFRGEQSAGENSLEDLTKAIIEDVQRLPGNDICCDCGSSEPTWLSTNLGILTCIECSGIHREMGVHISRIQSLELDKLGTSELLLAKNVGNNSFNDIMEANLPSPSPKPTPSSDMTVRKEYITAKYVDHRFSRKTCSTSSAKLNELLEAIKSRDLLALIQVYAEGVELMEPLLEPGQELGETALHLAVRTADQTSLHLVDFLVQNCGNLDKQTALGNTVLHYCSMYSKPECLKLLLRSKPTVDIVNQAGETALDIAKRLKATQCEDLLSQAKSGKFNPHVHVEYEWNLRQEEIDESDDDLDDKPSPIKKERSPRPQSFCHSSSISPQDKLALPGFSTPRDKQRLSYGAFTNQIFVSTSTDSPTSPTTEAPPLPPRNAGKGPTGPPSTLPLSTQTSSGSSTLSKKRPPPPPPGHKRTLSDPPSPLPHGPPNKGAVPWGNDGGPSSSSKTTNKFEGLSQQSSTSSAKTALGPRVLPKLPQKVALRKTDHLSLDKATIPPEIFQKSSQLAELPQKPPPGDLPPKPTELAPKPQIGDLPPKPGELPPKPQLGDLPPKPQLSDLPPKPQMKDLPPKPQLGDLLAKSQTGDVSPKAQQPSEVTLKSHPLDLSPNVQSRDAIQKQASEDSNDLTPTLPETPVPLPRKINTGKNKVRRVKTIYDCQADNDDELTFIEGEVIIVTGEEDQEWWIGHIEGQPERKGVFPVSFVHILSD
# Glucose-6-phosphate 1-dehydrogenase, sequence (P11413 whole entry): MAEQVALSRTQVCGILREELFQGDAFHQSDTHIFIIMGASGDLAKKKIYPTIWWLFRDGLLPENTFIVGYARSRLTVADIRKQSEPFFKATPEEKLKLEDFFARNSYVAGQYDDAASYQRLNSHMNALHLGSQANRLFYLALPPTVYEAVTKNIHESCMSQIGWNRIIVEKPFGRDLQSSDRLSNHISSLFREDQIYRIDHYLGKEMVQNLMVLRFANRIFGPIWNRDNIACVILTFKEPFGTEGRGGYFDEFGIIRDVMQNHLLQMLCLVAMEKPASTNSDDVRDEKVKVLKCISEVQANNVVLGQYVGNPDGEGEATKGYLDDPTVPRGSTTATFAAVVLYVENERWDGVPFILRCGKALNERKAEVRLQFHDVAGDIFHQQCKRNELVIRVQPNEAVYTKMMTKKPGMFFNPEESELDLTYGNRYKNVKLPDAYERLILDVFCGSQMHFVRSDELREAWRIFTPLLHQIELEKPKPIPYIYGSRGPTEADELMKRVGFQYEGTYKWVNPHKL
# Mitochondrial peptide methionine sulfoxide reductase, sequence (P54149 whole entry): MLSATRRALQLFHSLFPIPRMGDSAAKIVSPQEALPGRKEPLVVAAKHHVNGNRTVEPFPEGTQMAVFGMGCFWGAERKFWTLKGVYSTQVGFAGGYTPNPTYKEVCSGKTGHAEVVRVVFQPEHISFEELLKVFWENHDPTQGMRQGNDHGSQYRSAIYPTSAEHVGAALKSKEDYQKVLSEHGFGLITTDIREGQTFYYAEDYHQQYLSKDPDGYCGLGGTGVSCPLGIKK
compound,measurement,setting,value
Cc1cccc(-n2c(C)nnc2S)c1C,IC50,Beta-lactamase [1],> 59.6 µM (inactive)
same,IC50,Beta-lactamase [2],> 59.6 µM (inactive)
same,IC50,Beta-lactamase [3],> 59.6 µM (inactive)
Cc1ccc(Cl)cc1N=C1C=C(NS(=O)(=O)c2cccs2)c2ccccc2C1=O,IC50,[4],> 80 µM (inactive)
same,IC50,[5],155 µM (inactive)
same,AC50,Paired box protein Pax-8,4.82 µM (active)
same,AC50,[6],10.1 µM (active)
same,AC50,[7],8 µM (active)
same,AC50,[8],4.71 µM (active)
same,AC50,[9],17.2 µM (active)
same,AC50,[10],5.09 µM (active)
same,AC50,[11],7.88 µM (active)
Cn1c(NNC(=O)c2c(F)cccc2F)cc(=O)n(C)c1=O,IC50,[12],28 µM (active)
same,IC50,[13],12.5 µM (active)
N#CC(c1ccccc1[N+](=O)[O-])c1c(Cl)cnn(Cc2cccc3ccccc23)c1=O (stereo unspecified),IC50,[14],1.26 µM (active)
same,IC50,[15],1.26 µM (active)
COc1ccc(-c2csc(/C(C#N)=C\c3ccc(O)c([N+](=O)[O-])c3)n2)cc1OC,IC50,[16],35.7 µM (inactive)
same,IC50,[17],51.3 µM (inactive)
same,IC50,[18],> 66 µM (inactive)
same,IC50,[19],52.1 µM (inactive)
COCCN=C(S)N=Nc1c(O)[nH]c2ccc([N+](=O)[O-])cc12,IC50,Bcl-2-related protein A1,> 20 µM (inactive)
same,IC50,[20],6.15 µM (active)
same,IC50,[21],1.52 µM (active)
same,IC50,[22],26.8 µM (inactive)
CC(C)(C)c1ccc(NC(=O)Nc2ccc(OCC(=O)N3CCOCC3)cc2)cc1,AC50,[23],41.4 µM (active)
N#Cc1sc2nc(-c3cccs3)cc(-c3ccc(F)cc3)c2c1N,EC50,Melanocortin receptor 4,> 89.2 µM (inactive)
